Measurements reported in ChEMBL document CHEMBL1139487, “Discovery of corticotropin releasing factor 2 receptor selective sauvagine analogues for treatment of skeletal muscle atrophy” (J Med Chem, 2005).

Columns and labels:
[1] = target: T1, Corticotropin-releasing factor receptor 1 (Mus musculus) (UniProt P35347); assay: In vitro agonistic activity against mouse corticotropin releasing factor 1 receptor; type: functional
T1 sequence (whole entry): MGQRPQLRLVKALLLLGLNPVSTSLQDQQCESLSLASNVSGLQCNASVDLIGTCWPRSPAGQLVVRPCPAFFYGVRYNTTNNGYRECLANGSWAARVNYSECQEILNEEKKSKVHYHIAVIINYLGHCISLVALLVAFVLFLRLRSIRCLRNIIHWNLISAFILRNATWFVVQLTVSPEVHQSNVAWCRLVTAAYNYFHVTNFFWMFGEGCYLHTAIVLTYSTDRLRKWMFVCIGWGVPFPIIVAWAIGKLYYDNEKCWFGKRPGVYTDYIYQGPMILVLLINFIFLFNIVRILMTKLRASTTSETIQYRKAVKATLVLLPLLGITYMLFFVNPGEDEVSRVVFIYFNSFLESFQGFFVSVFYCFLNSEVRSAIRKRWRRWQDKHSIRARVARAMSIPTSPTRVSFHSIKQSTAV

Mus musculus = species: Mus musculus; assay: Selectivity ratio of EC50s for mouse corticotropin releasing factor receptors 1 and 2
[2] = target: T2, Corticotropin-releasing factor receptor 1 (Mus musculus, UniProt P35347); assay: In vitro effective concentration for mouse corticotropin releasing factor 1 receptor
T2 sequence (P35347 whole entry): T1 sequence (whole entry)

[3] = target: Corticotropin-releasing factor receptor 2 (Mus musculus, UniProt Q60748); assay: In vitro effective concentration for mouse corticotropin releasing factor 2 receptor
Corticotropin-releasing factor receptor 2, sequence (Q60748 whole entry): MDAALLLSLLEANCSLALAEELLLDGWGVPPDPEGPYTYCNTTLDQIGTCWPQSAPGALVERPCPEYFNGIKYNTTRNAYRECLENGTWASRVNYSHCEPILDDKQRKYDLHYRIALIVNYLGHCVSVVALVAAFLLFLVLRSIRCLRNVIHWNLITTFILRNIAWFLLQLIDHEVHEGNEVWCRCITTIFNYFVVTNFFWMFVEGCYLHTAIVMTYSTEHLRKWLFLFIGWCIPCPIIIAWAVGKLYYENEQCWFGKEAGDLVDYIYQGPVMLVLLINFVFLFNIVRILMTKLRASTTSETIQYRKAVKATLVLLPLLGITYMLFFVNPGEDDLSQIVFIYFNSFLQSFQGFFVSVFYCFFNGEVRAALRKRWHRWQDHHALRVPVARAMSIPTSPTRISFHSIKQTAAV

[4] = target: Corticotropin-releasing factor receptor 2 (Mus musculus) (UniProt Q60748); assay: In vitro agonistic activity against mouse corticotropin releasing factor 2 receptor; type: functional
Corticotropin-releasing factor receptor 2 (Mus musculus), sequence (Q60748 whole entry): as above

Emax [1] [%]	Selectivity (Mus musculus)	EC50 [2] [µM]	EC50 [3] [µM]	Emax [4] [%]	SMILES
100	21	0.445	0.0213	100	CC[C@H](C)[C@H](NC(=O)[C@@H](NC(=O)[C@H](CC(=O)O)NC(=O)[C@H](CC(C)C)NC(=O)[C@H](CC(C)C)NC(=O)[C@H](CC(C)C)NC(=O)[C@H](CCCN=C(N)N)NC(=O)[C@H](CC(N)=O)NC(=O)[C@H](CC(N)=O)NC(=O)[C@H](C)NC(=O)[C@H](C)NC(=O)[C@H](CCC(N)=O)NC(=O)[C@H](CCC(N)=O)NC(=O)[C@H](CCCCN)NC(=O)[C@H](CCC(=O)O)NC(=O)[C@H](CCCCN)NC(=O)[C@H](CCC(=O)O)NC(=O)[C@H](CCC(N)=O)NC(=O)[C@H](CCCCN)NC(=O)[C@H](CCC(=O)O)NC(=O)[C@@H](NC(=O)[C@H](CCC(=O)O)NC(=O)[C@@H](NC(=O)[C@H](CCSC)NC(=O)[C@H](CCCCN)NC(=O)[C@H](CCCN=C(N)N)NC(=O)[C@H](CC(C)C)NC(=O)[C@H](CC(C)C)NC(=O)[C@H](CCC(N)=O)NC(=O)[C@H](Cc1c[nH]cn1)NC(=O)[C@@H]1CCCN1C(=O)[C@H](CC(C)C)NC(=O)[C@H](CC(=O)O)NC(=O)[C@@H](NC(=O)[C@H](CO)NC(=O)[C@@H](NC(=O)[C@@H]1CCCN1C(=O)[C@@H]1CCCN1C(=O)CNC(=O)[C@@H]1CCC(=O)N1)[C@@H](C)CC)[C@@H](C)CC)[C@@H](C)CC)[C@@H](C)CC)[C@@H](C)O)C(=O)O
100	20	0.0946	0.0047	95	CC[C@H](C)[C@H](NC(=O)[C@@H](NC(=O)[C@H](CC(=O)O)NC(=O)[C@H](CC(C)C)NC(=O)[C@H](CC(C)C)NC(=O)[C@H](CC(C)C)NC(=O)[C@H](CCCN=C(N)N)NC(=O)[C@H](CC(N)=O)NC(=O)[C@H](CC(N)=O)NC(=O)[C@H](C)NC(=O)[C@H](C)NC(=O)[C@H](CCC(N)=O)NC(=O)[C@H](CCC(N)=O)NC(=O)[C@H](CCCCN)NC(=O)[C@H](CCC(=O)O)NC(=O)[C@H](CCCCN)NC(=O)[C@H](CCC(=O)O)NC(=O)[C@H](CCC(N)=O)NC(=O)[C@H](CCCCN)NC(=O)[C@H](CCC(=O)O)NC(=O)[C@@H](NC(=O)[C@H](CCC(=O)O)NC(=O)[C@@H](NC(=O)[C@H](CCSC)NC(=O)[C@H](CCCCN)NC(=O)[C@H](CCCN=C(N)N)NC(=O)[C@H](CC(C)C)NC(=O)[C@H](CC(C)C)NC(=O)[C@H](Cc1c[nH]c2ccccc12)NC(=O)[C@H](Cc1ccccc1)NC(=O)[C@@H]1CCCN1C(=O)[C@H](CC(C)C)NC(=O)[C@H](CC(=O)O)NC(=O)[C@@H](NC(=O)[C@H](CO)NC(=O)[C@@H](NC(=O)[C@@H]1CCCN1C(=O)[C@@H]1CCCN1C(=O)CNC(=O)[C@@H]1CCC(=O)N1)[C@@H](C)CC)[C@@H](C)CC)[C@@H](C)CC)[C@@H](C)CC)[C@@H](C)O)C(=O)O
100	28	0.236	0.0085	100	CC[C@H](C)[C@H](NC(=O)[C@@H](NC(=O)[C@H](CC(=O)O)NC(=O)[C@H](CC(C)C)NC(=O)[C@H](CC(C)C)NC(=O)[C@H](CC(C)C)NC(=O)[C@H](CCCN=C(N)N)NC(=O)[C@H](CC(N)=O)NC(=O)[C@H](CC(N)=O)NC(=O)[C@H](C)NC(=O)[C@H](C)NC(=O)[C@H](CCC(N)=O)NC(=O)[C@H](CCC(N)=O)NC(=O)[C@H](CCCCN)NC(=O)[C@H](CCC(=O)O)NC(=O)[C@H](CCCCN)NC(=O)[C@H](CCC(=O)O)NC(=O)[C@H](CCC(N)=O)NC(=O)[C@H](CCCCN)NC(=O)[C@H](CCC(=O)O)NC(=O)[C@@H](NC(=O)[C@H](CCC(=O)O)NC(=O)[C@@H](NC(=O)[C@H](CCSC)NC(=O)[C@H](CCCCN)NC(=O)[C@H](CCCN=C(N)N)NC(=O)[C@H](CC(C)C)NC(=O)[C@H](CC(C)C)NC(=O)[C@H](Cc1ccccc1)NC(=O)[C@H](CCC(N)=O)NC(=O)[C@@H]1CCCN1C(=O)[C@H](CC(C)C)NC(=O)[C@H](CC(=O)O)NC(=O)[C@@H](NC(=O)[C@H](CO)NC(=O)[C@@H](NC(=O)[C@@H]1CCCN1C(=O)[C@@H]1CCCN1C(=O)CNC(=O)[C@@H]1CCC(=O)N1)[C@@H](C)CC)[C@@H](C)CC)[C@@H](C)CC)[C@@H](C)CC)[C@@H](C)O)C(=O)O
